Assay results: ChEMBL document CHEMBL1201862, “PubChem BioAssay data set” (2004)
Active and inactive are the calls of the source.

How the values were obtained:
Protein skinhead-1 = target: T1, Protein skinhead-1 (Caenorhabditis elegans, UniProt P34707); type: functional
T1 sequence (P34707 whole entry): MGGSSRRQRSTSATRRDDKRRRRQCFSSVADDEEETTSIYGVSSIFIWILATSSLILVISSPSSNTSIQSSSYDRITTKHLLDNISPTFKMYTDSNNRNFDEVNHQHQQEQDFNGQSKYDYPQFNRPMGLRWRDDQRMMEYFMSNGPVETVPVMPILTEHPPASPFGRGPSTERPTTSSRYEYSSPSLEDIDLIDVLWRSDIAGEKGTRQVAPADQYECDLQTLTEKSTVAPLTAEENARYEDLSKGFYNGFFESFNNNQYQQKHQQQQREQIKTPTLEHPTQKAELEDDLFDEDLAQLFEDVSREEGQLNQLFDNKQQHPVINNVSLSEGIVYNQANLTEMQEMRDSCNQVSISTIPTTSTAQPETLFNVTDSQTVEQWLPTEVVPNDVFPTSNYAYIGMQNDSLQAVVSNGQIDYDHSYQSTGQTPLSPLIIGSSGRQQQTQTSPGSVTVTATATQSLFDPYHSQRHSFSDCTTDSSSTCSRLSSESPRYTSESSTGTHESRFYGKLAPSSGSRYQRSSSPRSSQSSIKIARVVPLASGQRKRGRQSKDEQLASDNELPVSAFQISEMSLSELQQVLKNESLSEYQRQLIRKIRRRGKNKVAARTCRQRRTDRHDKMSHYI

Fatty acid synthase [1] = target: T2, Fatty acid synthase (Homo sapiens, UniProt P49327); experiment: inhibition of human FAS-TE enzyme activity – biochemical, endpoint fluorescence intensity, uHTS hits, dose response (AID 624327); type: functional;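 also: fluorescence from hydrolysis of an O-methyl fluorescein acyl ester substrate by the enzyme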
Fatty acid synthase [2] = target: T2, Fatty acid synthase; experiment: inhibition of human FAS-TE enzyme activity – biochemical, kinetic fluorescence intensity, dose response (AID 624326); type: functional;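 also: rate of fluorescence rise from hydrolysis of a fluorogenic O-methyl fluorescein ester substrate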
[3] = target: T3, DNA repair and recombination protein RAD54-like (Homo sapiens, UniProt Q92698); experiment: RAD54 Holliday junction migration blockers – biochemical, fluorescence, cherry-picked samples, dose series, confirmation (AID 651657); type: functional
T3 sequence (Q92698 whole entry): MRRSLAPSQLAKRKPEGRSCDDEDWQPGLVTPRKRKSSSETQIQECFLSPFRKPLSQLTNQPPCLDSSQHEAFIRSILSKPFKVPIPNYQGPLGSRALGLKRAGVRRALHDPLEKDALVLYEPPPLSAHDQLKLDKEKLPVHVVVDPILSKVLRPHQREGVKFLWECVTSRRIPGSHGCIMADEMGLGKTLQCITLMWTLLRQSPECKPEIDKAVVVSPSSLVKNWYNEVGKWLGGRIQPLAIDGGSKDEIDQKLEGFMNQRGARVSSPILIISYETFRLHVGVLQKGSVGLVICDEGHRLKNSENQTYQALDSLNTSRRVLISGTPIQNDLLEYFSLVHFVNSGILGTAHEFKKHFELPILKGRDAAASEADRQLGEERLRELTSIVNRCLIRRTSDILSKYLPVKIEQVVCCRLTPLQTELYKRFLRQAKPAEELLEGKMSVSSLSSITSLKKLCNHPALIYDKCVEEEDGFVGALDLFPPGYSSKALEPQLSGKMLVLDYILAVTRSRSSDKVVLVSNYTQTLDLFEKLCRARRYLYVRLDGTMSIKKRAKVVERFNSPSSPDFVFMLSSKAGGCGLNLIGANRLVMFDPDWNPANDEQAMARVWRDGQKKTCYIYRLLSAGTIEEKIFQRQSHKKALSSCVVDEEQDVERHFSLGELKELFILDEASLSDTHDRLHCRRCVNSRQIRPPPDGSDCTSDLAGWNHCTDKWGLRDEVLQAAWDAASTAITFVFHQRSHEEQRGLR

[4] = target: T4, DNA repair protein RAD52 homolog (Homo sapiens, UniProt P43351); type: functional, biochemical
T4 sequence (P43351 whole entry): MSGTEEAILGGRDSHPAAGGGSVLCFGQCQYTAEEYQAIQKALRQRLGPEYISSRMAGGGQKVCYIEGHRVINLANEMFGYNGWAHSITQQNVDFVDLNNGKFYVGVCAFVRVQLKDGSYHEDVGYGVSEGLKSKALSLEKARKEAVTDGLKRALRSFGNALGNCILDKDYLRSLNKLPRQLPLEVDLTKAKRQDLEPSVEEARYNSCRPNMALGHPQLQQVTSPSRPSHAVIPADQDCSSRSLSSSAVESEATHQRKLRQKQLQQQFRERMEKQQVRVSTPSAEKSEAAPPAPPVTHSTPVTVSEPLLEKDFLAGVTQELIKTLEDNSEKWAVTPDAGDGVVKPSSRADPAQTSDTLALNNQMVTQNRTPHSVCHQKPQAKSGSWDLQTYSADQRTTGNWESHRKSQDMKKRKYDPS

Cytochrome P450 2C9 = Cytochrome P450 2C9 (Homo sapiens, UniProt P11712)
[5] = target: T5, Rac GTPase-activating protein 1 (Homo sapiens, UniProt Q9H0H5); experiment: blockers of MgcRacGAP-driven Rac1 GTP hydrolysis – biochemical, ADP Hunter fluorescence, primary and confirmatory, confirmation (AID 624330); type: functional
T5 sequence (Q9H0H5 whole entry): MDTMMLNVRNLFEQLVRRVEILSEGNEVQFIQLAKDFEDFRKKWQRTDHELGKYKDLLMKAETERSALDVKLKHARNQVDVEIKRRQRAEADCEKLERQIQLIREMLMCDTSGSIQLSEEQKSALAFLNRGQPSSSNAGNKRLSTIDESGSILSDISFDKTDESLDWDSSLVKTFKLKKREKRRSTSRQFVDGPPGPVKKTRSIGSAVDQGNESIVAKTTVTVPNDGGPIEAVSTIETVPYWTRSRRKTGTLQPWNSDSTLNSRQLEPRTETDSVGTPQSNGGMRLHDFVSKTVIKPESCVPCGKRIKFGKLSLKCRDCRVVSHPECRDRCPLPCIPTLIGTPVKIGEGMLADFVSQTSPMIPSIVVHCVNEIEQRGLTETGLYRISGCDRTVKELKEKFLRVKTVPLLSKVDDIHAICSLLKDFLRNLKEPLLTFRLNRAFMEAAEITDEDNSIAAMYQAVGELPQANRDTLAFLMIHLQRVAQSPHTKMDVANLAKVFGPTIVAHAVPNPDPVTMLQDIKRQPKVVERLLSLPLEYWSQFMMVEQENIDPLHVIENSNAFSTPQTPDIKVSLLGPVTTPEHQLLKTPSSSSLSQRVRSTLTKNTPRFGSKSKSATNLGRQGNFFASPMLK

[6] = blockers of HIV-1 envelope-mediated cell-cell fusion – cherry-pick, dose response (AID 652057); type: functional, cell-based
[7] = blockers of HIV-1 ZM109 envelope-driven cell-cell fusion – HeLa effector, CEM target cells, luciferase, cherry-pick, dose response (AID 652058); type: functional, cell-based;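 also: luciferase signal from HIV-1 Env mediated cell-cell fusion of effector and target cells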
[8] = HIV-1 AD8 envelope cell-cell fusion blockers – cherry-pick, dose response (AID 652062); type: functional, cell-based;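 also: luciferase signal from cell-cell fusion driven by HIV-1 clade B AD8 Env; potency is for inhibitors of fusion seen as a drop in luminescence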

T2 sequence (P49327 whole entry): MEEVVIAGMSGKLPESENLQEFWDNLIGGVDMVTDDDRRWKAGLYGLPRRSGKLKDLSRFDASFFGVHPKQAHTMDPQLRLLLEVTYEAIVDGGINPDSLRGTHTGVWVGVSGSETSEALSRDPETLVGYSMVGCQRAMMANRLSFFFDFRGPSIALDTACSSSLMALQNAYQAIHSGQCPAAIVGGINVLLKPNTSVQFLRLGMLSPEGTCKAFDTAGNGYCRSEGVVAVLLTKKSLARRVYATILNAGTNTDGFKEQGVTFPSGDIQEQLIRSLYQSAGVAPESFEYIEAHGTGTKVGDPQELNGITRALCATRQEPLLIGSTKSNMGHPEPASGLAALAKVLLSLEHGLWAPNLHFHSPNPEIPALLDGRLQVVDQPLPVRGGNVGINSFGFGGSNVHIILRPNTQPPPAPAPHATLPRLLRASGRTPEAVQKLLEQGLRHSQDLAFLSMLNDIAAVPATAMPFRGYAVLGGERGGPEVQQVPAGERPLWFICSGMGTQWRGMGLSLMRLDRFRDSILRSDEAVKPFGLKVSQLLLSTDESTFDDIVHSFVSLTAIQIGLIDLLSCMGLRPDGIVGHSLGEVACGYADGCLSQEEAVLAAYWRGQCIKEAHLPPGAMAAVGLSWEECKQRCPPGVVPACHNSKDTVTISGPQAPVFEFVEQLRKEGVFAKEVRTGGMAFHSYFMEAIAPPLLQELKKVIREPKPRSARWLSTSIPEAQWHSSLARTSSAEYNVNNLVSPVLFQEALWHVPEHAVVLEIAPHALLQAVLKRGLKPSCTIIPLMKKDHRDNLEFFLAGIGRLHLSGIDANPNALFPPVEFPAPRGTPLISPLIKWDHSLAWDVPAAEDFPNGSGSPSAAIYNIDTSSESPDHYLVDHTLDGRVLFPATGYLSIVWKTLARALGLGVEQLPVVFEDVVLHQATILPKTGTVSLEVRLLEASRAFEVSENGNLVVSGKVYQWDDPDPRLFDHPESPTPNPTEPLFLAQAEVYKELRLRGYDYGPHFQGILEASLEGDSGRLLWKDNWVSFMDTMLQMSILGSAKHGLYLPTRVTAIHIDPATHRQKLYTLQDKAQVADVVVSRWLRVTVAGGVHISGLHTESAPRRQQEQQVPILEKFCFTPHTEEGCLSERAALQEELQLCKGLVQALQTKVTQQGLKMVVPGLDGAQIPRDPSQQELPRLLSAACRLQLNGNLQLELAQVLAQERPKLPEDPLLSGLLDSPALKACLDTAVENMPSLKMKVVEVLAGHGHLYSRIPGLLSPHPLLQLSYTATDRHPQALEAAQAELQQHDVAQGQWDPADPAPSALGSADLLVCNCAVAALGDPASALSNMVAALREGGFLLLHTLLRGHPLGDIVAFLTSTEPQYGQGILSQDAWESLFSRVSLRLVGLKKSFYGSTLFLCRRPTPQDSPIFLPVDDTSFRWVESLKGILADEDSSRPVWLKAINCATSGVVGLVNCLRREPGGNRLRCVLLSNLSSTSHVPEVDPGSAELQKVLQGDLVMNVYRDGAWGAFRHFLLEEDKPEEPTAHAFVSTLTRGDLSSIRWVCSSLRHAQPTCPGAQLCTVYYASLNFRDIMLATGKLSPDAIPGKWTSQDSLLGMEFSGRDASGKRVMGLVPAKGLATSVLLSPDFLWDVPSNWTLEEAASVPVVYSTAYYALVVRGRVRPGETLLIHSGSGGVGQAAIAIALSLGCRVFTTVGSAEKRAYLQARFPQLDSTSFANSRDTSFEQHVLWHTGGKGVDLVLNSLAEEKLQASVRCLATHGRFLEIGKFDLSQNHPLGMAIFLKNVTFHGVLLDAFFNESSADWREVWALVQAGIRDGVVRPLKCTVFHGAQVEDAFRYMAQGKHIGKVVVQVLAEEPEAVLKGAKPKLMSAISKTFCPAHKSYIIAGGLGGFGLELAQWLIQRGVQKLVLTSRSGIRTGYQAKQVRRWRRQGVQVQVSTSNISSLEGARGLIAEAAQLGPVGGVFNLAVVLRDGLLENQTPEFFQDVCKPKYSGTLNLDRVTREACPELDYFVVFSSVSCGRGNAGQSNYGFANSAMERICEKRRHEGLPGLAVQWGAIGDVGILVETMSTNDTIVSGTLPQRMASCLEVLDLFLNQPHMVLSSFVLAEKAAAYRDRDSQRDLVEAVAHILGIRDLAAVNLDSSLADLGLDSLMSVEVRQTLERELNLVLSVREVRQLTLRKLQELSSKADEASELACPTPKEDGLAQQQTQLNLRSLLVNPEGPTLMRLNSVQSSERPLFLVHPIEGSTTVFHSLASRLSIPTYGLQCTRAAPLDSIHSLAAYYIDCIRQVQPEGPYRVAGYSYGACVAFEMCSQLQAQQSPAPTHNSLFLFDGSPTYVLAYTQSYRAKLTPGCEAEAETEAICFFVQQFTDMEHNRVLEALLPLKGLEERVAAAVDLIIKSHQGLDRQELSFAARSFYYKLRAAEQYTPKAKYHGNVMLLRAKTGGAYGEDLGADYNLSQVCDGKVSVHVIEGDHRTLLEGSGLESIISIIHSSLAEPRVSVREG
Sequence of Cytochrome P450 2C9 (P11712 whole entry): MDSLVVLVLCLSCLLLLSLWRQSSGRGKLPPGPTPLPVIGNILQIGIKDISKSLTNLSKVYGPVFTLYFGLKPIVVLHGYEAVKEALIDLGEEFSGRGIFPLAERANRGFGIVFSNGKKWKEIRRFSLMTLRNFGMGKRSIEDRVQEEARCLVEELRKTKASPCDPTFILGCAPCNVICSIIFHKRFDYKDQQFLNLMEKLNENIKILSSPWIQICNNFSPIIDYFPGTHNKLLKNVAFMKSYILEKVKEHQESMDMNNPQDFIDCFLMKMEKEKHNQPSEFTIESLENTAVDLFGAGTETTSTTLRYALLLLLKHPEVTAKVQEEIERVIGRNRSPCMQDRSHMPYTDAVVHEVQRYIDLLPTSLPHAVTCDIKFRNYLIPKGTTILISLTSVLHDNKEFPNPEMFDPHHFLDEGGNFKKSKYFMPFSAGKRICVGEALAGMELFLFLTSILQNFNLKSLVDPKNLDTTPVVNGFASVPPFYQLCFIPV

With Nc1sccc1C(=O)NCc1ccccc1 the IC50 (Protein skinhead-1) was > 100 µM (inactive).

For CN(C)CCCNC(=O)/C(=C\C=C\c1ccccc1)NC(=O)c1ccc([N+](=O)[O-])cc1, the IC50 (Fatty acid synthase [1]) was 0.87 µM (active) and the IC50 (Fatty acid synthase [2]) was 4.11 µM (active).

In the case of CNC(C)C#Cc1ccc2oc3cccc(OC)c3c(=O)c2c1 (centres undefined), the AC50 [3] is reported as 24.3 µM (active).

In the case of Cc1cccc(C)c1OCC(=O)Nc1nnc(C2CCCO2)s1 (centres undefined), the IC50 (Protein skinhead-1) is reported as > 100 µM (inactive).

For CCCCN(CC)CCCNC(=S)Nc1ccc2nc(N3CCN(C)CC3)cc(C)c2c1, the AC50 [3] was 30.8 µM (active) and the AC50 [4] was 1.95 µM (active).

For CCN(CC)CCn1c2ccc(Cl)cc2c2nc(C)sc21, the AC50 [3] was 22.1 µM (active) and the AC50 [4] was 5.39 µM (active).

With O=C(COC(=O)c1cc([N+](=O)[O-])ccc1NCCO)c1ccccc1 the IC50 (Fatty acid synthase [1]) was 8.17 µM (active) and the IC50 (Fatty acid synthase [2]) was 8.98 µM (active).

For CCOC(=O)c1cnc2c(Cl)cccc2c1NCCCN1CCOCC1, the AC50 [3] was 32.7 µM (active).

In the case of Clc1ccc(Cc2nc(-c3cccnc3)no2)cc1, the IC50 (Protein skinhead-1) is reported as 36.4 µM (active) and the AC50 (Cytochrome P450 2C9) is reported as 28.2 µM (inconclusive).

With Oc1ccc(Nc2ccnc3cc(Cl)ccc23)cc1 the AC50 [3] was 80.3 µM (active) and the IC50 [5] was 28.1 µM (active).

In the case of O=C(CCC(=O)Nc1ccc(Br)cc1)N/N=C/c1cc([N+](=O)[O-])ccc1O, the IC50 (Fatty acid synthase [1]) is reported as 12.9 µM (active) and the IC50 (Fatty acid synthase [2]) is reported as 8.73 µM (active).

In the case of COc1ccc(NC(=O)COC(=O)c2cc([N+](=O)[O-])ccc2N2CCOCC2)cc1, the IC50 (Fatty acid synthase [1]) is reported as 2.92 µM (active) and the IC50 (Fatty acid synthase [2]) is reported as 2.1 µM (active).

For O=C(N/C(=C/c1ccccc1)C(=O)N1CCOCC1)c1ccc([N+](=O)[O-])cc1, the IC50 (Fatty acid synthase [1]) was 16.8 µM (active) and the IC50 (Fatty acid synthase [2]) was 7.55 µM (active).

In the case of OCCN1CCN(c2nc(-c3ccccc3O)nc3ccccc23)CC1, the AC50 [3] is reported as 7.01 µM (active).

In the case of CC(CCc1ccco1)NC(=O)CSc1cc(=O)n(C)c2ccccc12 (centres undefined), the IC50 (Protein skinhead-1) is reported as > 100 µM (inactive).

For Cc1cccnc1Nc1nc(-c2ccc(F)cc2)cs1, the IC50 (Protein skinhead-1) was 89.2 µM (inactive).

With C[C@H](CO)N1C[C@H](C)[C@@H](CN(C)Cc2ccncc2)Oc2cc(C3=CCCCC3)ccc2S1(=O)=O the AC50 [6] was 13.4 µM (active) and the AC50 [7] was 12.3 µM (active).

With CN(Cc1ccccc1)C(=O)COC(=O)c1cc(Cl)nc(Cl)c1 the IC50 (Fatty acid synthase [1]) was 8.07 µM (active) and the IC50 (Fatty acid synthase [2]) was 13.5 µM (active).

With COc1ccc(N2CCn3c2nc2c3c(=O)n(CCCc3ccccc3)c(=O)n2C)c(OC)c1 the AC50 [7] was 0.572 µM (active) and the AC50 [8] was 5.71 µM (active).

For O=[N+]([O-])c1ccc(N2CCc3ccccc3C2)cc1, the IC50 (Protein skinhead-1) was > 100 µM (inactive).

For Cc1cc(NCCCN(C)C)n2c(nc3ccccc32)c1C#N, the AC50 [3] was 18.7 µM (active).

With CCN(CCCNC(=O)CC(C(=O)N1CCc2ccccc21)n1ccnc1)c1cccc(C)c1 (centres undefined) the IC50 (Protein skinhead-1) was > 100 µM (inactive).
